According to US4304782A, “Psychotropic deuterated derivatives of phenylhydantoin and pharmaceutical compositions comprising such derivatives” (Region Wallonne, priority 1979, dated 1981):
Entries after “also recorded” stand apart in the source; their conditions may differ.

How the values were obtained:
[1] = Accumulation in the cerebral tissue (general statement); format: in vivo; conditions: in comparison with diphenylhydantoin
Source text: (§1) The contents of the various tissues in DPH, DPH-d1 and DPH-d5 have been determined at two times after oral administration (male mice, female rats, titration by gaseous chromatography).
(§2) The whole results are mentioned in the following table III. The indicated values represent the ratio of active substance concentrations in the brain and blood. After oral administration, these values as well in rat as in mouse show a trend, which is marked to very marked, to be higher for deuterated DPH than for DPH itself.

[2] = tested on: convulsions caused by pentylene tetrazole; assay: Protection against convulsions caused by pentylene tetrazole (PTZ) in adult female Wistar rats after oral administration; format: in vivo, rat (Wistar; set-up: key to Chi2 difference between the doses (100 and 200 mgr/kg) / Chi2 difference between the times: NS: not significant; conditions: for Anticonvulsive activity compared with DPH: in comparison with diphenylhydantoin; for Chi2 difference between the doses (100 and 200 mgr/kg): 100 vs 200 mgr/kg; for Chi2 difference between the times: 1 hour vs 2 hours + 4 hours; for Chi2 difference between the times / Chi2 difference between DPH and deuterated DPH: * P < 0.05, ** P < 0.01; for Protection of rats against the convulsive effect of PTZ (number of protected animals / total number of animals): PTZ 100 mgr/kg intraperitoneally
Procedure: The active substances according to the invention were tested in order to examine their activity and their effects in comparison with known diphenylhydantoin (DPH). In these tests as follows, 5-(paradeuterophenyl)-5-phenylhydantoin will be designated by DPH-d1 and 5-phenyl-d5 -5-phenylhydantoin by DPH-d5.
To examine the anticonvulsive activity of these substances, they were subjected to testing as to protection against convulsions caused by pentylene tetrazole on adult female rat (Wistar strain: 200-220 gr). One, two or four hours after oral administration of hydantoins (100 and 200 mgr/kg: solution in dimethyl sulfoxide/propylene glycol), animals have received a dose of 100 mgr/kg of pentylene tetrazole (PTZ) intraperitonally, then they were maintained under observation for 1 hour. The absence of appearance of convulsions was considered as a positive response. The results are expressed in the following table I as the ratio between the number of protected animals and the total number of animals.
The research of significant differences has been made on the following aspects: between DPH and deuterated DPH at 1 hour at doses of 100 and 200 mgr/kg, between DPH and deuterated DPH at any time and at a dose of 100 mgr/kg, between doses of 100 and 200 mgr/kg and between the times.

[3] = Repartition in tissues (brain/blood ratio) after oral administration, rats, titration by gaseous chromatography; format: in vivo; conditions: female rat ± 200 gr, oral 100 mg/kg; for Kp at 1 h: after 1 hour; for Kp at 2 h: after 2 hours
Source text: as §1, §2

[4] = Repartition in tissues (brain/blood ratio) after oral administration, mice, titration by gaseous chromatography; format: in vivo; conditions: mouse, 100 mg/kg, male mice 20-25gr, oral 100 mgr/kg; for Kp at 2 h: after 2 hours; for Kp at 24 h: after 24 hours
Source text: as §1, §2

Structure (SMILES): [2H]c1c([2H])c([2H])c(C2(c3c([2H])c([2H])c([2H])c([2H])c3[2H])NC(=O)NC2=O)c([2H])c1[2H] [5,5-di-(phenyl-d5)-hydantoin]
- Accumulation in the cerebral tissue [1]: accumulation in the cerebral tissue more favorably
- Anticonvulsive activity compared with DPH [2]: higher anticonvulsive activity than diphenylhydantoin

Structure (SMILES): O=C1NC(=O)C(c2ccccc2)(c2ccccc2)N1 [DPH, 5,5-diphenylhydantoin, reference compound]
- Kp at 1 h [3]: 0.9 ± 0.13
- Kp at 2 h [3]: 5.91 ± 0.93
- Chi2 difference between the doses (100 and 200 mgr/kg) [2]: NS
- Chi2 difference between the times [2]: NS
- Protection of rats against the convulsive effect of PTZ (number of protected animals / total number of animals) ([2]; oral 100 mgr/kg, 1 hour): 4/25
- Protection of rats against the convulsive effect of PTZ (number of protected animals / total number of animals) ([2]; oral 100 mgr/kg, 2 hours): 2/10
- Protection of rats against the convulsive effect of PTZ (number of protected animals / total number of animals) ([2]; oral 100 mgr/kg, 4 hours): 0/10
- Protection of rats against the convulsive effect of PTZ (number of protected animals / total number of animals) ([2]; oral 200 mgr/kg, 1 hour): 5/35
- Kp at 2 h [4]: 1.45 ± 0.1
- Kp at 24 h [4]: 2.09 ± 0.22

Structure (SMILES): [2H]c1ccc(C2(c3ccccc3)NC(=O)NC2=O)cc1 (stereo not shown) [DPH-d1, 5-(paradeuterophenyl)-5-phenylhydantoin]
- Kp at 1 h [3]: 2.1 ± 0.41
- Kp at 2 h [3]: 15.5 ± 3.7
- Chi2 difference between the doses (100 and 200 mgr/kg) [2]: NS
- Chi2 difference between the times [2]: 3.93
- Chi2 difference between DPH and deuterated DPH ([2]; at 1 hour, 100 mgr/kg): 9.42
- Chi2 difference between DPH and deuterated DPH ([2]; at 1 hour, 200 mgr/kg): 4.36
- Chi2 difference between DPH and deuterated DPH ([2]; at any time, 100 mgr/kg): 9.40
- Anticonvulsive activity compared with DPH [2]: better protects the animals against the convulsive effect of PTZ than DPH; also recorded: higher anticonvulsive activity
- Protection of rats against the convulsive effect of PTZ (number of protected animals / total number of animals) ([2]; oral 100 mgr/kg, 1 hour): 9/14
- Protection of rats against the convulsive effect of PTZ (number of protected animals / total number of animals) ([2]; oral 100 mgr/kg, 2 hours): 4/10
- Protection of rats against the convulsive effect of PTZ (number of protected animals / total number of animals) ([2]; oral 100 mgr/kg, 4 hours): 2/10
- Protection of rats against the convulsive effect of PTZ (number of protected animals / total number of animals) ([2]; oral 200 mgr/kg, 1 hour): 11/30

Structure (SMILES): [2H]c1c([2H])c([2H])c(C2(c3ccccc3)NC(=O)NC2=O)c([2H])c1[2H] (stereo not shown) [DPH-d5, 5-phenyl-d5-5-phenylhydantoin]
- Accumulation in the cerebral tissue [1]: accumulation in the cerebral tissue more favorably
- Kp at 1 h [3]: 2.15 ± 0.37
- Kp at 2 h [3]: 4.49 ± 1.33
- Chi2 difference between the doses (100 and 200 mgr/kg) [2]: NS
- Chi2 difference between the times [2]: 3.58
- Chi2 difference between DPH and deuterated DPH ([2]; at 1 hour, 100 mgr/kg): 2.17
- Chi2 difference between DPH and deuterated DPH ([2]; at 1 hour, 200 mgr/kg): 2.92
- Chi2 difference between DPH and deuterated DPH ([2]; at any time, 100 mgr/kg): 1.22
- Anticonvulsive activity compared with DPH [2]: A difference in the same direction, close to the significance limit; also recorded: higher anticonvulsive activity
- Anticonvulsive activity compared with DPH ([2]; listed as (R,S)-5-phenyl-d5 -5-phenylhydantoin): higher anticonvulsive activity than diphenylhydantoin
- Protection of rats against the convulsive effect of PTZ (number of protected animals / total number of animals) ([2]; oral 100 mgr/kg, 1 hour): 7/20
- Protection of rats against the convulsive effect of PTZ (number of protected animals / total number of animals) ([2]; oral 100 mgr/kg, 2 hours): 2/10
- Protection of rats against the convulsive effect of PTZ (number of protected animals / total number of animals) ([2]; oral 100 mgr/kg, 4 hours): 0/10
- Protection of rats against the convulsive effect of PTZ (number of protected animals / total number of animals) ([2]; oral 200 mgr/kg, 1 hour): 11/35
- Kp at 2 h [4]: 2.35 ± 0.26
- Kp at 24 h [4]: 2.97 ± 0.3
